Laboratory results reported in patent US6465433B1, “Boronic ester and acid compounds, synthesis and uses” (Millennium Pharmaceuticals, Inc., priority 1994, dated 2002).
Where a SMILES comes first, the peptide text is derived from it. The star is where a group is joined. Cbz = O=C(OCc1ccccc1)*

Columns and labels:
Cathepsin B = Cathepsin B (Homo sapiens, UniProt P07858); experiment: Kinetic assay: inhibition of Cathepsin B; assay type: biochemical; conditions: Table IV
Excerpt: [Worded in the source for another target; this target is reported under the same test.] (§1) Table II summarizes results from kinetic experiments that measured the inhibition of the 20S proteasome by compounds having the formula of compound (1) or (2). P, AA^1, AA^2, AA^3, and Z^1 and Z^2 represent the structures present on formula (1) or (2). The protocol for the kinetic assay described in Tables II-V is as described in Rock et al., Cell 78:761-771 (1994). In these tables, Ki values are reported, which are dissociation constants for the equilibrium that is established when enzyme and inhibitor interact to form the enzyme:inhibitor complex. The reactions were performed using SDS-activated 20S proteasome from rabbit muscle. The substrate used was Suc-LLVY-AMC.

[1] = biological target: SDS-activated 20S proteasome from rabbit muscle (Oryctolagus cuniculus, UniProt G1SU71+G1T4Q9); experiment: Kinetic assay: inhibition of the 20S proteasome; assay type: biochemical
Description: as §1, with “P,” for “Table II summarizes results from kinetic experiments that measured the inhibition of the 20S proteasome by compounds having the formula of compound (1) or (2). P,”

C2C12 cells = experiment: Inhibition of protein degradation in C2C12 cells; assay type: cell-based, mouse; conditions: 35S-methionine labelled cells, percent decrease in TCA soluble radioactivity, media with 50% serum
Description: One approach to testing drug candidates for their ability to inhibit the ATP-ubiquitin-dependent degradative process is to measure proteolysis in cultured cells (Rock, et al., Cell 78:761 (1994)). For example, the degradation of long-lived intracellular proteins can be measured in mouse C2C12 myoblast cells. Cells are incubated with ^35S-methionine for 48 hours to label long-lived proteins and then chased for 2 hours with medium containing unlabeled methionine. After the chase period, the cells are incubated for 4 hours in the presence or absence of the test compound. The amount of protein degradation in the cell can be measured by quantitating the trichloroacetic acid soluble radioactivity released from the pre-labeled proteins into the growth medium (an indicator of intracellular proteolysis).
C2C12 cells (a mouse myoblast line) were labelled for 48 hrs with ^35S-methionine. The cells were then washed and preincubated for 2 hrs in the same media supplemented with 2 mM unlabelled methionine. The media was removed and replaced with a fresh aliquot of the preincubation media containing 50% serum, and a concentration of the compound to be tested. The media was then removed and made up to 10% TCA and centrifuged. The TCA soluble radioactivity was counted. Inhibition of proteolysis was calculated as the percent decrease in TCA soluble radioactivity.

Cathepsin G = biological target: T1, Cathepsin G (Homo sapiens, UniProt P08311); experiment: Kinetic assay: inhibition of Cathepsin G; assay type: biochemical; conditions: Table V
T1 sequence (P08311 21-244): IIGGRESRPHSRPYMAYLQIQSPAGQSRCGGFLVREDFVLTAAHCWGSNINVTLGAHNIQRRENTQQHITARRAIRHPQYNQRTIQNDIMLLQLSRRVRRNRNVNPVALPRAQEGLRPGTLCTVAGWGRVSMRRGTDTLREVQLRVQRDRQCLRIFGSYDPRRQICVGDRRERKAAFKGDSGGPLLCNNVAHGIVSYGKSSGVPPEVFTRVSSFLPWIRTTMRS

mice = experiment: DTH response (contact sensitivity, ear swelling) in mice; assay type: in vivo, mouse; conditions: oral, ear swelling approximately 18 hours after challenge
Excerpt: Compounds can also be tested for their ability to inhibit a delayed-type hypersensitivity response in mice. Contact hypersensitivity is a manifestation of an in vivo T-cell mediated immune response (Friedmann, Curr. Opinion Immunology, 1:690693 (1989)). Although the exact molecular mechanisms that regulate the cellular interactions and vascular changes involved in the response remain obscure, it is clear that the process is dependent upon the interplay of soluble mediators, adhesion molecules, and the cytokine network (Piguet, et al., J. Exp. Med. 173:673-679 (1991); Nickoloff, et al. J. Invest. Dermatol. 94:151S-157S (1990)). NF-κB, by mediating events such as the production of cytokines and the induction and utilization of cell-surface adhesion molecules, is a central and coordinating regulator involved in immune responses.
Naive nice were sensitized by the application of 20 μL of a 0.5% (v/v) solution of 2,4-dinitrofluorobenzene in 4:1 acetone/olive oil to both of the rear limb footpads. This procedure is performed on two consecutive days, which are referred to as days 0 and 1.
The efferent phase of the contact sensitivity response was elicited on day 5 by the application of 10 μL of a 0.2% (v/v) solution of 2,4-dinitrofluorobenzene in 4:1 acetone/olive oil to both sides of the left ear. The contralateral control ear was treated on both sides with 10 μL of vehicle only. The mice were lightly anaesthetized for this procedure by the intraperitoneal (i.p.) injection of a mixture of ketamine.(80 mg/kg, Henry Schein) and xylazine (16 mg/kg, Henry Schein). […]
Approximately 18 hours after the challenge, ear swelling was determined by measuring both the control and the experimental ear using a Mitutoyo Digital micrometer. The absolute difference in thickness of the experimental (left) ears vs. the control (right) ears was determined for each treatment group. Efficacy was determined by comparing this difference in thickness to the difference calculated for the vehicle control group.

Human Leukocyte Elastase = biological target: T2, Human Leukocyte Elastase (Homo sapiens, UniProt P08246); experiment: Kinetic assay: inhibition of Human Leukocyte Elastase; assay type: biochemical; conditions: Table V
T2 sequence (P08246 30-267): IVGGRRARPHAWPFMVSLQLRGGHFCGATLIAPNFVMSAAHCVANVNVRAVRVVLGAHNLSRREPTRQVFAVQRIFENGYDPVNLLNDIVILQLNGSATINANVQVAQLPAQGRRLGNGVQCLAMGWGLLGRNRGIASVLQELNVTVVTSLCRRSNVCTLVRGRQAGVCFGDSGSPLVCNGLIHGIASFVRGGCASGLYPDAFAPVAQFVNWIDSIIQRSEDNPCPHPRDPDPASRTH

[2] = Table II, SDS-activated 20S proteasome from rabbit muscle, substrate Suc-LLVY-AMC

Row | IC50 (C2C12 cells; Mus musculus, C2C12) [nM] | Ki [1, 2] [nM] | IC50 (C2C12 cells) [nM] | Compound | further results
1 |  |  |  | CC(=O)N[C@@H](CC(C)C)C(=O)N[C@@H](CC(C)C)C(=O)N[C@H](C=O)CC(C)C [MG-154, reference compound] (Ac-Leu-Leu-Leu-aldehyde) | Ki (Cathepsin B): 0.005 µM; Ki ([1]; Table IV): 66 nM
2 |  |  |  | CC(C)CC(C=O)NC(=O)C(CC(C)C)NC(=O)C(Cc1c[nH]c2ccccc12)NC(=O)OCc1ccccc1 (stereo not drawn) [MG-191, reference compound] (Cbz-Trp-Leu-Leu-aldehyde; configuration not given here) | Ki (Cathepsin B): 0.00054 µM; Ki ([1]; Table IV): 0.38 nM
3 | 140 | 0.18 |  | CC(C)C[C@H](NC(=O)[C@H](Cc1cccc2ccccc12)NC(=O)N1CCOCC1)B(O)O [MG-273, N-(4-Morpholine)carbonyl-β-(1-naphthyl)-L-alanine-L-leucine Boronic Acid] | Ki (Cathepsin B): 200 µM; Ki ([1]; Table IV): 0.18 nM
4 | 738 | 1.7 |  | CC(C)C[C@H](NC(=O)[C@H](Cc1cccc2ccccc12)NS(=O)(=O)c1cccc2cccnc12)B(O)O [MG-296, N-(8-quinoline)sulfonyl-β-(1-naphthyl)-L-alanine-L-leucine boronic acid] | Ki (Cathepsin G): 9.2 µM; % Inhibition of the DTH response (mice; dose 50 mg/kg): 60%; Ki (Human Leukocyte Elastase): 36 nM; Ki (Cathepsin B): 4 µM; Ki ([1]; Table IV): 1.7 nM; Ki ([1]; Table V): 1.7 nM
5 |  | 1.3 | 1300 | CC(=O)N[C@@H](Cc1c[nH]c2ccccc12)C(=O)N[C@@H](CC(C)C)B(O)O [MG-301] | 
6 | 130 | 0.23 |  | CC(C)C[C@H](NC(=O)[C@H](Cc1ccc(OCc2ccccc2)cc1)NC(=O)N1CCOCC1)B(O)O [MG-306, N-(4-Morpholine)carbonyl-(O-benzyl)-L-tyrosine-L-leucine Boronic Acid] | 
7 |  | 0.72 | 96 | CC(C)CC(NC(=O)C(Cc1ccc2ccccc2c1)NC(=O)N1CCOCC1)B(O)O (stereo not shown) [MG-308] | 
8 |  | 6.3 | 1100 | CC(C)C[C@H](NC(=O)[C@H](Cc1ccccn1)NC(=O)N1CCOCC1)B(O)O [MG-312] | 
9 |  | 0.19 | 130 | CC(C)C[C@H](NC(=O)[C@H](Cc1ccccc1)NC(=O)c1ccc2ccccc2n1)B(O)O [MG-314] | 
10 | 340 | 2.2 |  | CC(C)C[C@H](NC(=O)[C@H](Cc1ccc2ccccc2n1)NC(=O)N1CCOCC1)B(O)O [MG-315, N-(4-Morpholine)carbonyl-β-(2-quinolyl)-L-alanine-L-leucine Boronic Acid] | 
11 | 21000 | 22 |  | CC(C)C[C@H](NC(=O)[C@@H]1Cc2ccccc2CN1)B(O)O [MG-316] | 
12 | 14000 | 20 |  | CC(C)C[C@H](NC(=O)[C@@H]1CCCN1)B(O)O [MG-319] | 
13 |  | 0.32 | 2400 | O=C(NC(Cc1ccccc1)B(O)O)C(Cc1cccc2ccccc12)NC(=O)N1CCOCC1 (stereo not shown) [MG-321] | 
14 |  | 2.2 | 380 | CC(C)CC(NC(=O)C(CCc1ccccc1)NC(=O)N1CCOCC1)B(O)O (stereo not shown) [MG-322] | 
15 | 1100 | 2.8 |  | CC(C)C[C@H](NC(=O)[C@H](CCc1ccccc1)NC(=O)c1ccc2ccccc2n1)B(O)O [MG-325, N-(2quinoline)carbonyl-L-homophenylalanine-L-leucine boronic acid] | 
16 |  | 0.088 | 69 | CC(C)C[C@H](NC(=O)[C@H](Cc1cccc2ccccc12)NC(=O)c1ccccc1)B(O)O [MG-328] | 
17 |  | 0.03 | 48 | CC(C)C[C@H](NC(=O)[C@H](Cc1cccc2ccccc12)NC(=O)C1CCCCC1)B(O)O [MG-329] | 
18 | 220 | 2.1 |  | CN[C@@H](Cc1cccc2ccccc12)C(=O)N[C@@H](CC(C)C)B(O)O [MG-333] | 
19 | 100 | 0.25 |  | CC(C)C[C@H](NC(=O)[C@H](Cc1ccccc1)NC(=O)c1cccnc1)B(O)O [MG-336, N-(3-pyridine)carbonyl-L-phenylalanine-L-leucine boronic acid] | 
20 | 69 |  |  | CC(C)C[C@H](NC(=O)[C@H](Cc1ccccc1)NC(=O)c1cnccn1)B(O)O [MG-341, N-(2-pyrazine)carbonyl-L-phenylalanine-L-leucine boronic acid] | % Inhibition of the DTH response (mice; dose 3 mg/kg): 90%; Ki (Cathepsin B): 160 µM
21 |  | 0.42 | 57 | CC(C)C[C@H](NC(=O)[C@H](Cc1ccccc1)NC(=O)c1ccccn1)B(O)O [MG-343] | 
22 |  | 0.76 | 120 | CC(C)C[C@H](NC(=O)[C@H](Cc1ccccn1)NC(=O)c1ccccc1)B(O)O [MG-345] | 
23 |  | 1.1 | 150 | CC(C)C[C@H](NC(=O)[C@H](Cc1ccccn1)NC(=O)C1CCCCC1)B(O)O [MG-346] | 
24 |  | 29 | 13000 | CC(C)C[C@H](NC(=O)[C@H](Cc1ccccn1)NS(=O)(=O)c1cccc2cccnc12)B(O)O [MG-347] | 
25 |  | 0.14 | 160 | CC(C)C[C@H](NC(=O)[C@H](Cc1ccccc1)NC(=O)NCc1ccccc1)B(O)O [MG-350] | 
26 |  | 32 | 8100 | CC(C)C[C@H](NC(=O)[C@@H](N)Cc1ccccn1)B(O)O [MG-351] | 

Row | Compound | IC50 (C2C12 cells; Mus musculus, C2C12) [nM] | Ki [1, 2] [nM] | IC50 (C2C12 cells) [nM] | further results
27 | CC(C)C[C@H](NC(=O)[C@H](Cc1ccc(O)cc1)NC(=O)N1CCOCC1)B(O)O [MG-307, N-(4-morpholine)carbonyl-L-tyrosine-L-leucine boronic acid] |  | 0.51 | 4800 | 
28 | N-Cbz-L-Leucine-L-leucine Boronic Acid [MG-274] |  | 3 | 340 | Ki ([1]; Table III, dipeptide boronic acid vs dipeptide aldehyde): 3 nM
29 | β-(1-Naphthyl)-L-alanine-L-leucine Boronic Acid Hydrochloride Salt [MG-302] |  | 7.5 | 270 | 
30 | β-(1-Naphthyl)-L-alanine-L-leucine Boronic Acid [MG-303] |  | 3.9 | 340 | 
